Laboratory results taken from the NIST ThermoML archive (doi:10.1021/je2000205).
Numbers after ± are expanded uncertainties.

Assay: mn = molality of the nth substance listed, in mol/kg
Details: 100 kPa, Liquid; for viscosity: Capillary tube (Ostwald / Ubbelohde) method; for speed of sound: Sing-around technique in a fixed-path interferometer; for mass density: Vibrating tube method

O=C[C@H](O)[C@@H](O)[C@H](O)[C@H](O)CO [D-glucose] + O
m1 = 1.13
Details | mass density [kg/m3] | speed of sound [m/s] | viscosity [mPa·s]
298.15 K | 1065.07 ± 0.12 | 1564.8 ± 1.4 | 1.489 ± 0.15
303.15 K | 1063.3 ± 0.11 | 1574.3 ± 1.3 | 1.278 ± 0.13
308.15 K | 1061.36 ± 0.1 | 1582.4 ± 1.3 | 1.147 ± 0.12
313.15 K | 1059.24 ± 0.1 | 1589.1 ± 1.3 | 0.9944 ± 0.1
318.15 K | 1056.98 ± 0.1 | 1594.4 ± 1.3 | 0.9095 ± 0.091
323.15 K | 1054.25 ± 0.12 | 1598.5 ± 1.4 | 0.8291 ± 0.083

OC[C@H]1O[C@@](CO)(O[C@H]2O[C@H](CO)[C@@H](O)[C@H](O)[C@H]2O)[C@@H](O)[C@@H]1O [D-sucrose] + O
Details | mass density, m1 = 1.27 [kg/m3] | speed of sound, m1 = 1.13 [m/s] | viscosity, m1 = 1.13 [mPa·s]
298.15 K | 1127.37 ± 0.18 | 1607.9 ± 1.4 | 2.716 ± 0.27
303.15 K | 1125.37 ± 0.17 | 1615.6 ± 1.3 | 2.376 ± 0.24
308.15 K | 1123.2 ± 0.17 | 1621.9 ± 1.3 | 2.075 ± 0.21
313.15 K | 1120.73 ± 0.17 | 1627 ± 1.3 | 1.795 ± 0.18
318.15 K | 1118.18 ± 0.16 | 1630.8 ± 1.3 | 1.587 ± 0.16
323.15 K | 1115.44 ± 0.17 | 1633.3 ± 1.4 | 1.394 ± 0.14
